Results reported in PubChem BioAssay AID248 (DTP/NCI, 2004).
Values joined by “and” are separate entries in the source; they are usually repeats but may differ in a detail not shown here. Identical values can stand only once. Toxic doses and inconclusive results are not listed. Rule as the data show it: active = T/C of 150% or more; inactive = T/C below 125%.

System: L1210 leukemia ip in BDF1 mice, survival T/C
Experiment: NCI In Vivo Anticancer Drug Screen. Data for tumor model L1210 Leukemia (intraperitoneal) in B6D2F1 (BDF1) mice
Conditions: endpoint: mean survival time, higher = longer survival
In short: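 Antitumor effect is assessed in tumor-bearing animals. Survival in the compound arm is compared with a vehicle-dosed control arm and expressed as their quotient.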

[1] = dose: 44.0 mg/kg/injection, schedule: Q01DX Z (ip), vehicle: methylcellulose (MC)
[2] = dose: 66.0 mg/kg/injection, schedule: Q01DX Z (ip), vehicle: methylcellulose (MC)
[3] = dose: 100.0 mg/kg/injection, schedule: Q01DX Z (ip), vehicle: methylcellulose (MC)
[4] = dose: 100.0 mg/kg/injection, schedule: Q01DX009 (ip), vehicle: saline with Tween-80
[5] = dose: 200.0 mg/kg/injection, schedule: Q01DX009 (ip), vehicle: saline with Tween-80
[6] = dose: 400.0 mg/kg/injection, schedule: Q01DX009 (ip), vehicle: saline with Tween-80
[7] = dose: 100.0 mg/kg/injection, schedule: Q04DX003 (ip), vehicle: saline
[8] = dose: 200.0 mg/kg/injection, schedule: Q04DX003 (ip), vehicle: saline
[9] = dose: 400.0 mg/kg/injection, schedule: Q04DX003 (ip), vehicle: saline
[10] = dose: 100.0 mg/kg/injection, schedule: Q01DX009 (ip), vehicle: Klucel (hydroxypropylcellulose) (HPC)
[11] = dose: 200.0 mg/kg/injection, schedule: Q01DX009 (ip), vehicle: Klucel (hydroxypropylcellulose) (HPC)
[12] = dose: 100.0 mg/kg/injection, schedule: Q01DX001 (ip), vehicle: carboxymethylcellulose (CMC)
[13] = dose: 200.0 mg/kg/injection, schedule: Q01DX001 (ip), vehicle: carboxymethylcellulose (CMC)
[14] = dose: 200.0 mg/kg/injection, schedule: Q01DX009 (ip), vehicle: water

Measured: T/C

CCCCC(CC)C(=O)C(CCN(C)C)(c1ccccc1)c1ccccn1 (stereo not drawn)
inactive: [1] 101 % of control | [2] 97 % of control | [3] 96 % of control

Nc1ccc(SC(Sc2ccc(N)cc2)c2ccccc2)cc1
inactive: dose: 75.0 mg/kg/injection, schedule: Q01DX001 (ip), vehicle: other 105 % of control | dose: 75.0 mg/kg/injection, schedule: Q04DX003 (ip), vehicle: other 101 % of control | dose: 150.0 mg/kg/injection, schedule: Q01DX001 (ip), vehicle: other 107 % of control | dose: 150.0 mg/kg/injection, schedule: Q04DX003 (ip), vehicle: other 89 % of control | dose: 300.0 mg/kg/injection, schedule: Q01DX001 (ip), vehicle: other 100 % of control | dose: 300.0 mg/kg/injection, schedule: Q04DX003 (ip), vehicle: other 92 % of control

Nc1ccccc1SC1CC(=O)N(c2ccccc2Cl)C1=O (stereo not drawn)
inactive: [4] 98 % of control | [5] 95 % of control | [6] 97 % of control

C#CCOC(=O)NCC
inactive: [7] 101 % of control | [8] 102 % of control | [9] 96 % of control

CN=C(NC)c1ccc(NC(=O)c2cc(Cl)cc(C(=O)Nc3ccc(C(=NC)NC)cc3)c2)cc1
inactive: dose: 1.88 mg/kg/injection, schedule: Q01DX Z (ip), vehicle: saline 88 % of control | dose: 3.75 mg/kg/injection, schedule: Q01DX Z (ip), vehicle: saline 94 % of control | dose: 7.5 mg/kg/injection, schedule: Q01DX Z (ip), vehicle: saline 93 % of control | dose: 15.0 mg/kg/injection, schedule: Q01DX Z (ip), vehicle: saline 104 % of control and 115 % of control

NC(=O)c1cc(Br)ccc1O
inactive: dose: 50.0 mg/kg/injection, schedule: Q01DX009 (ip), vehicle: Klucel (hydroxypropylcellulose) (HPC) 89 % of control | [10] 92 % of control | [11] 95 % of control

CC(C)(CC(=O)O)NC(=O)CN
inactive: dose: 100.0 mg/kg/injection, schedule: Q04DX002 (ip), vehicle: saline 94 % of control | dose: 200.0 mg/kg/injection, schedule: Q04DX002 (ip), vehicle: saline 91 % of control | dose: 400.0 mg/kg/injection, schedule: Q04DX002 (ip), vehicle: saline 97 % of control

O=C(CC(O)(C(F)(F)F)C(F)(F)F)c1ccc(-c2ccccc2)cc1
inactive: dose: 50.0 mg/kg/injection, schedule: Q01DX009 (ip), vehicle: saline with Tween-80 96 % of control | dose: 50.0 mg/kg/injection, schedule: Q04DX003 (ip), vehicle: saline with Tween-80 101 % of control | [4] 98 % of control | dose: 100.0 mg/kg/injection, schedule: Q04DX003 (ip), vehicle: saline with Tween-80 104 % of control | [5] 100 % of control | dose: 200.0 mg/kg/injection, schedule: Q04DX003 (ip), vehicle: saline with Tween-80 97 % of control | [6] 101 % of control | dose: 400.0 mg/kg/injection, schedule: Q04DX003 (ip), vehicle: saline with Tween-80 93 % of control

CCN1CC2C3CCC(C)(O3)C2C1 (stereo not drawn)
inactive: [1] 100 % of control | [2] 92 % of control | [3] 98 % of control

Oc1ccccc1C(=NNc1ccccc1)c1ccccc1O
inactive: [12] 115 % of control | [13] 105 % of control | dose: 400.0 mg/kg/injection, schedule: Q01DX001 (ip), vehicle: carboxymethylcellulose (CMC) 103 % of control

C/C=C(\C)C(C#N)CCCC (stereo not drawn)
inactive: dose: 75.0 mg/kg/injection, schedule: Q01DX001 (ip), vehicle: carboxymethylcellulose (CMC) 95 % of control | dose: 150.0 mg/kg/injection, schedule: Q01DX001 (ip), vehicle: carboxymethylcellulose (CMC) 106 % of control | dose: 300.0 mg/kg/injection, schedule: Q01DX001 (ip), vehicle: carboxymethylcellulose (CMC) 95 % of control

CC(C)c1cc[n+](/C(C(=S)Nc2ccccc2Cl)=C(/[O-])c2ccc([N+](=O)[O-])cc2)cc1
inactive: [10] 94 % of control | [11] 97 % of control | dose: 400.0 mg/kg/injection, schedule: Q01DX009 (ip), vehicle: Klucel (hydroxypropylcellulose) (HPC) 96 % of control

CCOCC1c2ccccc2CCN1Cc1c[nH]c2ccccc12 (stereo not drawn)
inactive: dose: 50.0 mg/kg/injection, schedule: Q01DX001 (ip), vehicle: carboxymethylcellulose (CMC) 97 % of control | [12] 89 % of control | [13] 90 % of control

NCCCP(c1ccccc1)c1ccccc1
inactive: dose: 75.0 mg/kg/injection, schedule: Q01DX001 (ip), vehicle: saline 105 % of control | dose: 150.0 mg/kg/injection, schedule: Q01DX001 (ip), vehicle: saline 92 % of control

O=C(CC1(O)C(=O)Nc2ccccc21)c1ccccc1 (stereo not drawn)
inactive: dose: 100.0 mg/kg/injection, schedule: Q04DX003 (ip), vehicle: Klucel (hydroxypropylcellulose) (HPC) 101 % of control | dose: 200.0 mg/kg/injection, schedule: Q04DX003 (ip), vehicle: Klucel (hydroxypropylcellulose) (HPC) 96 % of control | dose: 400.0 mg/kg/injection, schedule: Q04DX003 (ip), vehicle: Klucel (hydroxypropylcellulose) (HPC) 96 % of control

CCOC(/C=C(\C)C(C)=O)OCC
inactive: [7] 97 % of control | [8] 98 % of control | [9] 95 % of control

CCCCCCCCCCOCCCCCCCCCC
inactive: dose: 50.0 mg/kg/injection, schedule: Q01DX009 (ip), vehicle: saline 92 % of control | dose: 100.0 mg/kg/injection, schedule: Q01DX009 (ip), vehicle: saline 92 % of control | dose: 200.0 mg/kg/injection, schedule: Q01DX009 (ip), vehicle: saline 89 % of control

CC(=O)Nc1ccc(SSSc2ccc(NC(C)=O)cc2)cc1
inactive: dose: 1.56 mg/kg/injection, schedule: Q01DX009 (ip), vehicle: water 100 % of control | dose: 3.12 mg/kg/injection, schedule: Q01DX009 (ip), vehicle: water 92 % of control | dose: 6.25 mg/kg/injection, schedule: Q01DX009 (ip), vehicle: water 96 % of control | dose: 12.5 mg/kg/injection, schedule: Q01DX009 (ip), vehicle: water 91 % of control | dose: 25.0 mg/kg/injection, schedule: Q01DX009 (ip), vehicle: water 94 % of control and 88 % of control | [14] 92 % of control

O=C(Cn1ccc(O)cc1=O)N1CCOCC1
inactive: dose: 100.0 mg/kg/injection, schedule: Q01DX009 (ip), vehicle: water 105 % of control | dose: 100.0 mg/kg/injection, schedule: Q04DX003 (ip), vehicle: water 101 % of control | [14] 100 % of control | dose: 200.0 mg/kg/injection, schedule: Q04DX003 (ip), vehicle: water 106 % of control | dose: 400.0 mg/kg/injection, schedule: Q01DX009 (ip), vehicle: water 103 % of control | dose: 400.0 mg/kg/injection, schedule: Q04DX003 (ip), vehicle: water 94 % of control

CN1CCCN(C(=S)S)CC1
inactive: dose: 30.0 mg/kg/injection, schedule: Q01DX001 (ip), vehicle: saline 96 % of control | dose: 100.0 mg/kg/injection, schedule: Q01DX001 (ip), vehicle: saline 95 % of control
